Source: patent publication US20180346446A1, “IRE1 SMALL MOLECULE INHIBITORS” (QUENTIS THERAPEUTICS, INC., priority 2017, published 2018)

Tests used:
[1] = test system: IRE1a-mediated XBP1 splicing; assay: Suppression of XBP1 splicing in liver of tunicamycin-injected mice; format: in vivo; conditions: 0.25 mg/kg tunicamycin, 10 mg/kg compound intraperitoneal, 4 hours, RT-qPCR
Protocol: Mice were injected with 0.25 mg/kg tunicamycin dissolved in DMSO: PBS at a ratio of 1:3. After 2 hours, the mice were injected with 10 mg/kg of Compound 3 dissolved in water or water alone as a vehicle control. After an additional 4 hours, the animals were euthanized, livers dissected out, and 2-3 mm^3 liver pieces are flash frozen on dry ice. Liver pieces were then thawed in Trizol on ice, homogenized for 3 minutes with a bead mill at medium-high speed. RNA was then extracted from the Trizol solution according to the manufacturer's recommendation. Gene expression analysis was also performed via Reverse Transcription quantitative PCR (RT-qPCR) using a Stratagene Mx3005 instrument and SYBR green I (Life Technologies). Gene expression was measured of the spliced Xbp1s transcript, a primer set measuring all Xbp1 transcripts, Xbp1s target genes including Sec24d and general ER stress response markers Hspa5 (BiP) and Ddit3 (CHOP).

[2] = Microsome stability assay, human liver microsomes; format: in vitro ADME; conditions: formic acid salt
Protocol: (§1) The formic acid salt of Compound 3 was tested under the microsome stability assay outlined below. Test compounds were incubated at 37° C. with liver microsomes (pooled from multiple donors) at […] in the presence of a NADPH regenerating system at 0.5 mg/ml microsomal protein. Positive controls included Testosterone (3A4 substrate), Propafenone (2D6) and Diclofenac (2C9), which were incubated with microsomes in the presence of an NADPH regenerating system. At time points (0, 5, 10, 20, 30 and 60 minutes), samples were removed and immediately mixed with cold acetonitrile containing internal standard (IS). Test compounds incubated with microsomes without the NADPH regenerating system for 60 min was also included. A single point for each test condition (n=1) was obtained, and samples were analyzed by LC/MS/MS. Disappearance of the test compound was assessed based on peak area ratios of analyte/IS (no standard curve).

[3] = test system: IRE1a-mediated XBP1 splicing; assay: Inhibition of IRE1a signaling in cell types of the tumor microenvironment (metastatic ovarian cancer mice); format: in vivo; conditions: mice with metastatic ovarian cancer, 11 mg/kg, 12 hours, tumor cells, DC, CD4+ and CD8+ T cells from ascites
Protocol: A syngeneic mouse model for metastatic, orthotopic ovarian cancer was used to analyze the in vivo effects of compounds described herein. Assay conditions were similar to those described in Example 11, administering compound 3 for comparison against controls. […] After 12 hours, the ascites were drained and FACS was used to purify the cells into four populations: tumor cells, dendritic cells (DC), CD4+ T cells, and CD8+ T cells. Then, PCR and qPCR was used to quantify spliced Xbp1 transcripts and total Xbp1 transcripts. […] Compound 3 can therefore inhibit IRE1a-mediated XBP1 splicing in vivo in tumor cells and key immune cell types found within the tumor microenvironment.

[4] = Microsome stability assay, mouse liver microsomes; format: in vitro ADME; conditions: formic acid salt
Protocol: as §1

SMILES: CCc1cc(-c2ccc(NS(=O)(=O)c3ccccc3Cl)cc2C)cc2cnc(N[C@H]3CC[C@H](N)CC3)nc12 [Compound 3, N-(4-(2-(((1r,4r)-4-aminocyclohexyl)amino)-8-ethylquinazolin-6-yl)-3-methylphenyl)-2-chlorobenzenesulfonamide]
- suppression of IRE1a-mediated XBP1 splicing in vivo [1]: potently suppresses
- HLM Remaining at 60 min ([2]; 60 min): 44%
- Human CI ([2]; human liver microsomes, 37° C., NADPH regenerating system): 29.2 µL/min/mg
- half-life at 1 NM ([2]; human, liver microsomes (pooled from multiple donors), 37° C., 0.5 mg/ml microsomal protein, NADPH regenerating system, read-out: Human Liver Microsome (HLM) T1/2): 47.5 min
- splicing ratio of XBP1 (spliced Xbp1 transcripts divided by total Xbp1 transcripts) compared to vehicle-treated mice [3]: markedly reduced
- Mouse Liver Microsome CI ([4]; 37° C., NADPH regenerating system): 31.9 µL/min/mg
- Mouse Liver Microsome Remaining at 60 min ([4]; 60 min): 41%
- half-life at 1 NM ([4]; mouse, liver microsomes (pooled from multiple donors), 37° C., 0.5 mg/ml microsomal protein, NADPH regenerating system, read-out: Mouse Liver Microsome T1/2): 43.5 min
